US20060074243A1, “Hydroxamic acid and amide compounds and their use as protease inhibitors” (Pharmacia Corporation, priority 2002, published 2006)

Experiments:
Human recombinant MMP-13 = target: T1, Human recombinant MMP-13 (Homo sapiens, UniProt P45452); assay: In vitro MMP inhibition analysis (fluorogenic peptide substrate cleavage), Ki; assay type: biochemical; conditions: Table 2
T1 construct: made in house; host or cells: baculovirus / insect cells
In short: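 Baculovirus-expressed full-length MMP-13 proenzyme was purified on heparin-agarose and zinc-chelate columns, then APMA-activated. It cleaved 4 μM MCA/Dpa fluorogenic peptide in 100 mM Tris-HCl, 100 mM NaCl, 10 mM CaCl2, 0.05% Brij-23, pH 7.5, for 1 h at room temperature (ex 330/em 420 nm). Ki came from Morrison-equation fits with substrate ≤Km, uncorrected.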

Human recombinant MMP-2 = target: T2, Human recombinant MMP-2 (Homo sapiens, UniProt P08253); assay: as above; assay type: biochemical; conditions: Table 2
T2 construct: made in house; host or cells: MMP-2-transfected p2AHT2 cells
T2 sequence (P08253 110-660): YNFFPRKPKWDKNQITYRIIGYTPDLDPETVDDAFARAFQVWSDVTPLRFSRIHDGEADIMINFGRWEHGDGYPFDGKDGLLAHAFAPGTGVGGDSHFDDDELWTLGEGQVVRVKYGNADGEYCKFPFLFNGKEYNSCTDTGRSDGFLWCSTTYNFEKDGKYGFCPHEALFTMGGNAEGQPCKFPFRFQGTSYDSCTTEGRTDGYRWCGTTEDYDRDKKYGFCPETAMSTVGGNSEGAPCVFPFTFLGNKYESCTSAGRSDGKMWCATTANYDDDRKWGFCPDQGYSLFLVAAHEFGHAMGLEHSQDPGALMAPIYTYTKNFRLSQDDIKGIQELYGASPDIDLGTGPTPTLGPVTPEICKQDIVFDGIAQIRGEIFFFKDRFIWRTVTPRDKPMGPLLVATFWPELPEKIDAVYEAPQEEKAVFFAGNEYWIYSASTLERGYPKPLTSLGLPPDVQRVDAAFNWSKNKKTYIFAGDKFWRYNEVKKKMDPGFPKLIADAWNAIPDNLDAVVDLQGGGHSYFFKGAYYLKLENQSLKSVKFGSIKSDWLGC
In short: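 Human recombinant MMP-2 from transfected p2AHT2 cells was activated with APMA or trypsin and incubated 1 h at room temperature with compounds and 4 μM MCA-RPLGL(Dpa)ARER-NH2. Buffer was pH 7.5 Tris/NaCl/CaCl2, and fluorescence was read at ex 330/em 420 nm. Ki was fitted by Morrison's equation without substrate correction.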

Ki (Human recombinant MMP-13) [nM] | Ki (Human recombinant MMP-2) [nM] | SMILES
0.091 | 0.184 | CCc1ccc(-c2ccc(S(=O)(=O)C3(C(=O)NO)CCOCC3)cc2)cc1 [Example 79]
0.0485 | 0.18 | CCCCOc1ccc(-c2ccc(S(=O)(=O)C3(C(=O)NO)CCOCC3)cc2)cc1 [Example 77]
1.19 | 15.1 | CC(C)(C)NC(=O)c1ccc(-c2ccc(S(=O)(=O)C3(C(=O)NO)CCOCC3)cc2)nc1 [Example 205]
0.0332 | 0.0488 | CCCCc1ccc(-c2ccc(S(=O)(=O)C3(C(=O)NO)CCOCC3)cc2)nc1 [Example 89]
0.21 | 0.8 | CCCCNC(=O)c1cnc(-c2ccc(S(=O)(=O)C3(C(=O)NO)CCOCC3)cc2)cn1 [Example 184]
0.03 | 0.177 | COCCOc1ccc(-c2ccc(S(=O)(=O)C3(C(=O)NO)CCOCC3)cc2)cc1 [Example 70]
0.55 | 2.33 | CC(C)CNC(=O)c1cnc(-c2ccc(S(=O)(=O)C3(C(=O)NO)CCOCC3)cc2)cn1 [Example 186]
0.24 | 1.09 | CC(C)CCc1cnc(-c2ccc(S(=O)(=O)C3(C(=O)NO)CCOCC3)cc2)cn1 [Example 169]
0.715 | 10.6 | CC[C@H](C)NC(=O)c1ccc(-c2ccc(S(=O)(=O)C3(C(=O)NO)CCOCC3)cc2)nc1 [Example 208]
1.31 | 7.44 | CCCCNc1cnc(-c2ccc(S(=O)(=O)C3(C(=O)NO)CCOCC3)cc2)cn1 [Example 83]
0.03 | 0.4 | CC(C)CC#Cc1cnc(-c2ccc(S(=O)(=O)C3(C(=O)NO)CCOCC3)cc2)cn1 [Example 166]
319 | 176 | O=C(NO)C1(S(=O)(=O)c2ccc(-c3cnc4ccccc4n3)cc2)CCOCC1 [Example 194]
0.06 | 0.08 | O=C(NO)C1(S(=O)(=O)c2ccc(-c3cnc(OCC4CC4)cn3)cc2)CCOCC1 [Example 168]
0.217 | 0.374 | CCCCc1ccc(-c2ccc(S(=O)(=O)C3(C(=O)NO)CCOCC3)cc2)cc1 [Example 91]
0.02 | 0.045 | O=C(NO)C1(S(=O)(=O)c2ccc(-c3ccc(CCC(F)(F)C(F)(F)F)cn3)cc2)CCOCC1 [Example 201]
0.375 | 1.77 | CCCCNC(=O)c1ccc(-c2ccc(S(=O)(=O)C3(C(=O)NO)CCOCC3)cc2)nc1 [Example 203]
7.07 | 114 | COc1ccc(Cc2cnc(-c3ccc(S(=O)(=O)C4(C(=O)NO)CCOCC4)cc3)cn2)cc1 [Example 182]
0.118 | 0.106 | Cc1ccc(-c2ccc(S(=O)(=O)C3(C(=O)NO)CCOCC3)cc2)nc1 [Example 81]
0.138 | 0.158 | CCCc1ccc(-c2ccc(S(=O)(=O)C3(C(=O)NO)CCOCC3)cc2)cc1 [Example 87]
0.24 | 0.75 | O=C(NCC1CC1)c1cnc(-c2ccc(S(=O)(=O)C3(C(=O)NO)CCOCC3)cc2)cn1 [Example 191]
0.13 | 0.2 | O=C(NO)C1(S(=O)(=O)c2ccc(-c3ccc(C(F)(F)F)cn3)cc2)CCOCC1 [Example 82]
0.19 | 0.91 | CC(C)CCNC(=O)c1cnc(-c2ccc(S(=O)(=O)C3(C(=O)NO)CCOCC3)cc2)cn1 [Example 185]
0.09 | 0.272 | COC(=O)c1ccc2cc(-c3ccc(S(=O)(=O)C4(C(=O)NO)CCOCC4)cc3)ccc2c1 [Example 181]
0.22 | 0.89 | O=C(NCC(F)(F)C(F)(F)F)c1cnc(-c2ccc(S(=O)(=O)C3(C(=O)NO)CCOCC3)cc2)cn1 [Example 192]
0.08 | 0.09 | CC(C)COc1cnc(-c2ccc(S(=O)(=O)C3(C(=O)NO)CCOCC3)cc2)cn1 [Example 170]
0.02 | 0.04 | O=C(NO)C1(S(=O)(=O)c2ccc(-c3ccc(CCC(F)(F)F)cn3)cc2)CCOCC1 [Example 176]

The remaining lines, values behind:

SMILES | Ki (Human recombinant MMP-13) [nM] | Ki (Human recombinant MMP-2) [nM]
CCCCOc1ccc(-c2ccc(S(=O)(=O)C3(C(=O)NO)CCOCC3)cc2)cc1C(F)(F)F [Example 78] | 16.6 | 55.5
O=C(NO)C1(S(=O)(=O)c2ccc(-c3cnc(CCCC(F)(F)F)cn3)cc2)CCN(C2CC2)CC1 [Example 218] | 0.267 | 1.93
O=C(NO)C1(S(=O)(=O)c2ccc(-c3ccc(OCC(F)(F)C(F)(F)F)cc3)cc2)CCOCC1 [Example 95] | 0.155 | 0.17
COCCOC1CCC(C(=O)NO)(S(=O)(=O)c2ccc(-c3cnc(CCCC(F)(F)F)cn3)cc2)CC1 (stereo not drawn) [Example 210] | 0.151 | 1.01
O=C(NO)C1(S(=O)(=O)c2ccc(-c3ccc(OCC(F)(F)C(F)(F)F)c(C(F)(F)F)c3)cc2)CCOCC1 [Example 90] | 19.7 | 28.3
COCCC(C(=O)NO)S(=O)(=O)c1ccc(-c2ccc(CCC(F)(F)C(F)(F)F)cc2)cc1 (stereo not drawn) [Example 177] | 0.82 | 1.57
O=C(c1ccc2cc(-c3ccc(S(=O)(=O)C4(C(=O)NO)CCOCC4)cc3)ccc2c1)N1CCCCC1 [Example 223] | 0.97 | 11
O=C(NCC1CC1)c1ccc2cc(-c3ccc(S(=O)(=O)C4(C(=O)NO)CCOCC4)cc3)ccc2c1 [Example 220] | 0.259 | 0.539
O=C(NO)C1(S(=O)(=O)c2ccc(-c3ccc4c(c3)OCO4)cc2)CCOCC1 [Example 188] | 0.08 | 0.13
C#CCN(C)C(=O)c1ccc2cc(-c3ccc(S(=O)(=O)C4(C(=O)NO)CCOCC4)cc3)ccc2c1 [Example 216] | 0.572 | 2.51
CN(C)C(=O)c1ccc2cc(-c3ccc(S(=O)(=O)C4(C(=O)NO)CCOCC4)cc3)ccc2c1 [Example 221] | 0.736 | 5.61
O=C(NO)C1(S(=O)(=O)c2ccc(-c3ccc(CCCC(F)(F)F)cn3)cc2)CC=CC1 [Example 202] | 0.076 | 0.32
CCN1CCC(C(=O)NO)(S(=O)(=O)c2ccc(-c3cnc(CCCC(F)(F)F)cn3)cc2)CC1 [Example 217] | 1.2 | 9.06
COCCOC1CCC(C(=O)NO)(S(=O)(=O)c2ccc(-c3ccc(CCCC(F)(F)F)cn3)cc2)CC1 (stereo not drawn) [Example 209] | 0.029 | 0.081
O=C(NO)C1(S(=O)(=O)c2ccc(-c3nc4ccccc4s3)cc2)CCOCC1 [Example 195] | 7.2 | 5.74
CCN1CCC(C(=O)NO)(S(=O)(=O)c2ccc(-c3cnc(CCC(F)(F)F)cn3)cc2)CC1 [Example 213] | 1.41 | 3.57
CN(C)C(=O)N1CCC(C(=O)NO)(S(=O)(=O)c2ccc(-c3ccc(CCC(F)(F)C(F)(F)F)cc3)cc2)CC1 [Example 173] | 0.32 | 0.35
O=C(NO)C1(S(=O)(=O)c2ccc(-c3cnc(OCCC4CCCC4)cn3)cc2)CCOCC1 [Example 180] | 0.15 | 0.295
O=C(c1ccc2cc(-c3ccc(S(=O)(=O)C4(C(=O)NO)CCOCC4)cc3)ccc2c1)N1CCOCC1 [Example 222] | 0.612 | 7.8
O=C(N1CCCCC1)N1CCC(C(=O)NO)(S(=O)(=O)c2ccc(-c3ccc(CCC(F)(F)C(F)(F)F)cc3)cc2)CC1 [Example 175] | 0.71 | 0.42
COCCO[C@H]1CC[C@](C(=O)NO)(S(=O)(=O)c2ccc(-c3cnc(CCC(F)(F)C(F)(F)F)cn3)cc2)CC1 [Example 187] | 0.1 | 0.32
O=C(NO)C1(S(=O)(=O)c2ccc(-c3ccc(OCC(F)(F)C(F)F)c(C(F)(F)F)c3)cc2)CCOCC1 [Example 85] | 14.7 | 33.4
O=C(NO)C1(S(=O)(=O)c2ccc(-c3cnc(OCCC4CC4)cn3)cc2)CCOCC1 [Example 172] | 0.03 | 0.07
O=C(NO)C1(S(=O)(=O)c2ccc(-c3ccc(F)c(C(F)(F)F)c3)cc2)CCOCC1 [Example 84] | 1.85 | 10.1
CO[C@H]1CC[C@](C(=O)NO)(S(=O)(=O)c2ccc(-c3cnc(CCC(F)(F)C(F)(F)F)cn3)cc2)CC1 [Example 183] | 0.13 | 0.35
O=C1c2ccccc2C(=O)N1CCCOc1cccc(-c2ccc(S(=O)(=O)C3(C(=O)NO)CCOCC3)cc2)c1 [Example 196] | 13.5 | 947
COCCN1CCC(C(=O)NO)(S(=O)(=O)c2ccc(-c3cnc(CCC(F)(F)F)cn3)cc2)CC1 [Example 214] | 0.661 | 2.09
COCCN1CCC(C(=O)NO)(S(=O)(=O)c2ccc(-c3cnc(OCCC4CCCC4)cn3)cc2)CC1 [Example 200] | 0.144 | 0.404
